Reference: patent US12442827B2 (UNIVERSITY OF NORTH TEXAS HEALTH SCIENCE CENTER AT FORT …, priority 2019, dated 2025)

B1: PIP: hormonally regulated protein, a 17-kDa glycoprotein (protein, UniProt P12273 29-146, looked up)
Prolactin-inducible protein: QDNTRKIIIKNFDIPKSVRPNDEVTAVLAVQTELKECMVVKTYLISSIPLQGAFNYKYTACLCDDNPKTFYWDFYTNRTVQIAAVVDVIRELGICPDDAAVIPIKNNRFYTIEILKVE

Assays:
Format in all cases: cell-based, human
[1] = system: HKCs; assay: LH/FSH ratio in 3D constructs after DHEA, Estrone, Estriol stimulation (Western blot); conditions: HKCs (cells from Keratoconus patients), 4 weeks, FIGS. 9A to 9C
Source text: (§1) In FIGS. 9A to 9C, healthy corneas were obtained from the National Disease Research Interchange (NDRI). KC corneas were obtained from individuals immediately following corneal transplantation. Inclusion/exclusion criteria for healthy controls required absence of ophthalmic disease, diabetes, or infectious conditions. Tissue from KC patients who had previously undergone collagen crosslinking was excluded. Corneal stromal cells were isolated from healthy (HCFs) and KC (HKCs) corneas. Both HCFs and HKCs were isolated as previously described. Briefly, using a surgical scalpel, the corneal epithelium and endothelium were removed. The corneal stroma was then washed in sterile PBS, cut into small pieces (approximately 2×2 mm), and placed into flasks; the cells were then allowed to adhere. Explants were grown for 2-4 weeks at 37° C./5% CO2/95% relative humidity, using Eagle's Minimum Essential Media (EMEM) supplemented with 10% fetal bovine serum (Atlanta Biologicals, Flowery Branch, GA, USA), and antibiotic/antimycotic (Anti/Anti, Life Technologies, Grand Island, NY, USA). Once confluent, cells were isolated following trypsinization, subcultured, or frozen using standard cryoprotective protocols. Three-dimensional constructs: —HCFs and HKCs were plated at a density of 1×10^6 cells/well on six-well size polycarbonate membrane inserts with 0.4-μm pores (VWR, Radnor, PA, USA). The cells were cultured in EMEM containing 10% FBS, 1% antibiotic, and stimulated with a stable Vitamin C derivative (0.5 mM 2-O-α-D-glucopyranosyl-L-ascorbic acid: Sigma-Aldrich, St. Louis, MO, USA). Cultures were grown for a total of 4 weeks and fresh media was supplied every other day for the duration of the study. Protein extraction and further analysis occurred at the 4-week timepoint.
(§2) All cultures were collected and washed twice with PBS, and total protein was isolated using 1× radioimmunoprecipitation assay (RIPA) buffer (50 mM Tris pH 8, 150 mM NaCl, 1% Triton X-100, and 0.1% SDS) containing a protease inhibitor cocktail (Sigma-Aldrich, St. Louis, MO, USA). Cell lysates were centrifuged at 4° C., and the supernatant was isolated and subjected to a Pierce BCA Protein assay (ThermoScientific, Rockford, IL, USA) for protein concentration quantification. Novex 4-20% Tris-glycine mini WedgeWell format 12-well gels (FisherScientific, Hampton, NH, USA) were electrophoresed at 130 V for 1.5 h, and transferred onto a nitrocellulose membrane at 100 V for 1 hour on ice. B lots were blocked in 5% dry milk (Great Value, Bentonville, AR, USA) for 1 h, at room temperature, with shaking. […] Results were analyzed by normalizing values to the expression of housekeeping antibody β-Actin (Abcam, Cambridge, MA, USA).

[2] = system: HCFs; assay: as above; conditions: HCFs (cells from Healthy individuals), 4 weeks, FIGS. 9A to 9C
Source text: as §1, §2

[3] = system: KC cells (HKCs); assay: LH/FSH ratio after PIP treatment (Western blot); conditions: PIP 50-500 ng/ml, 48 hours, in a concentration dependent manner, FIG. 12
Protocol: (§3) In FIG. 12, HCFs and HKCs were seeded in 12-well plates at 5×10^5 cells/well in regular media. 24 hours later media was replaced for treatment media (regular media supplemented with the treatment). The treatments consisted on five different concentrations of PIP: 50 ng/ml, 100 ng/ml, 200 ng/ml, 350 ng/ml and 500 ng/ml at a number of four wells per treatment. After 48 hours treatment finished and all the wells were wash with PBS and proteins were extracted using 1 ml of RIPA buffer 1×. Bradford assay (Thermo scientific, IL, USA) was carried out to determine the protein concentration and normalize the samples. For western blot analysis samples were mixed with loading buffer and equal amounts of protein were loaded (25 μg per lane) on a 4-20% Tris-Glycine gel (Novex, Life technologies, Carlsbad, CA) and electrophoresed at 135-140V for 1.5 hour. Each sample was run single. T hereafter, the gel was transferred on to a nitrocellulose membrane (Novex, Nitrocellulose membrane, Life Technologies, Carlsbad, CA), at 100V for 1 hour on ice. Finally, the membranes were blocked in milk (5% milk in TBST; Thermo scientific, IL, USA) for 1 hour and incubated overnight in the rocker at 4° C. with the primary antibody at 1:250 dilution. […] GAPDH (rabbit polyclonal ab9485, Abcam, Cambridge, MA) was used as housekeeping for all the targets at a dilution of 1:1000. […]

[4] = system: Healthy cells (HCFs); assay: LH/FSH ratio after PIP treatment (Western blot); conditions: PIP 50-500 ng/ml, 48 hours, in a concentration dependent manner, FIG. 12
Protocol: as §3

| Molecule | LH/FSH ratio modulated in vitro [1] | LH/FSH ratio modulated in vitro [2] | LH/FSH ratio modulation [3] | LH/FSH ratio modulation [4] |
| --- | --- | --- | --- | --- |
| C[C@]12CC[C@H](O)CC1=CC[C@@H]1[C@@H]2CC[C@]2(C)C(=O)CC[C@@H]12 [DHEA] | “recovering” towards a healthy phenotype | moving towards a disease-phenotype | – | – |
| C[C@]12CC[C@@H]3c4ccc(O)cc4CC[C@H]3[C@@H]1C[C@@H](O)[C@@H]2O [Estriol] | “recovering” towards a healthy phenotype | moving towards a disease-phenotype | – | – |
| B1 | – | – | modulated | modulated |
